PubChem BioAssay AID1963832 (Molecular Pharmacology Branch, DTP, NCI, 2024)

Tested on: 885724-159-R-J1-PDC complex spheroid viability
Experiment: Anticancer human tumor 885724-159-R-J1-PDC patient-derived pancreatic adenocarcinoma cell line growth inhibition [POLQ]
Conditions: for IC50: curve of first compound; for viability, T/C: stronger effect = lower value
Protocol: Multicellular complex tumor spheroid response to Polymerase (POL) inhibitors (novobiocin, ART-558, RP6685) in combination with a variety of drugs and investigational agents in selected tumor cell lines
The POL inhibitors (novobiocin, ART-558, and RP6685) were evaluated both individually and in combination with standard of care and investigational anticancer small molecules within a complex spheroid model of solid tumors. . Complex spheroids include a stromal component modeled by human endothelial cells (HUVEC) and fibroblasts modeled by human mesenchymal stem cells (MSCs). The concentration ranges selected for each drug and investigational agent were based upon clinically achievable concentrations if the clinical Cmax of the agent was known.
Compounds. The drugs and investigational agents: novobiocin (NSC847541), ART-558 (NSC835418), RP-6685 (NSC848927), peposertib (NSC802822), ceralasertib (NSC780249), elimusertib (NSC800525), camonsertib (NSC841442), AZD-1390 (NSC803789), olaparib (NSC753686), talazoparib (NSC767125), rucaparib (NSC756644), sotorasib (NSC818433), MRTX-1133 (NSC836407), SN-38 (NSC673596), topotecan (NSC609699), epotoside (NSC141540), doxorubicin (NSC123127), gemcitabine (NSC613327), 5-fluorouracil (NSC19893), paclitaxel (NSC125973), vemurafenib (NSC761431), MSA-2 (NSC828583), SN-011 (NSC837082), adavosertib (NSC754352), prexasertib (NSC758257), carboplatin (NSC241240) and oxaliplatin (NSC266046), were obtained from the National Cancer Institute (NCI) Developmental Therapeutics Program Chemical Repository (21). The FDA-approved anticancer drug set is available from the Developmental Therapeutics Program at https://dtp.cancer.gov/organization/dscb/obtaining/. […] The stock solutions were prepared in dimethyl sulfoxide (DMSO, Sigma-Aldrich, St. Louis, MO, cat. D2650), except for the platinum compounds which were prepared in saline (Quality Biological, Gaithersburg, MD, cat. 114-055-101), at 800-fold the tested concentration and stored at -70 degrees C prior to their use. All drugs and investigational agents were tested over a range starting from a high concentration at or near the clinical Cmax and decreasing in half-log increments. If the clinical Cmax for an agent had not been determined, the highest concentration tested was 10 microM, except for SN-38, which was tested at a high concentration of 1 microM.
Cell Culture. All cells were maintained in an incubator at 37 degrees C and 5% CO2 with 95% humidity. The PDC lines were cultured according to standard operating procedures established by the NCI PDMR (https://pdmr.cancer.gov). Table 3 of the manuscript, lists the cell lines along with the number of the three cell types plated to form the mct-spheroids and media for tumor cell growth. After thawing, all PDC lines, except 997537-175-T-J1-PDC and 415267-285-R-J2-PDC, were cultured in Matrigel-coated flasks prepared with a working solution of 1X Ham's F-12 nutrient mix, without supplementation (Thermo Fisher Scientific, cat. 11765054), 100 U/mL penicillin-streptomycin (Thermo Fisher Scientific, cat. 15140122), and 2.5% Matrigel (Corning Inc., Corning, NY, cat. 354248) for the first three passages. The two PDC lines 997537-175-T-J1-PDC and 415267-285-R-J2-PDC were cultured on uncoated flasks. The 857933-349-R-J2-PDC line was cultured in 6C/Colon 1B media containing advanced DMEM/F-12 (Thermo Fisher Scientific, cat. 12634028), 10 mM HEPES (Thermo Fisher Scientific, cat. 15630080), 1X GlutaMAX supplement (Thermo Fisher Scientific, cat. 35050061), 0.1 mg/mL primocin (InvivoGen, San Diego, CA, cat. ant-pm-2), 10% defined fetal bovine serum, heat inactivated (HyClone Laboratories Inc., Logan, UT, cat. SH30070.03HI), 50% L-WRN conditioned media (ATCC, cat. CRL-3276), 1.25 mM N-Acetyl-L-cysteine (Sigma-Aldrich, cat. A9165), 10 mM nicotinamide (Sigma-Aldrich, cat. N0636), 1X B-27 supplement (Thermo Fisher Scientific, cat. 17504044), 1X N-2 supplement (Thermo Fisher Scientific, cat. […]
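Further: spheroids exposed to compounds for 7 days.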

**Q.** Which results are given for `C=CC(=O)N1CCN(c2nc(=O)n(-c3c(C)ccnc3C(C)C)c3nc(-c4c(O)cccc4F)c(F)cc23)C(C)C1` (configuration not stated) + Cc1cccc(N(C)C(=O)C2C(O)CCN2c2nc(C)cc(C(F)(F)F)c2C#N)c1?
**A.** IC50 (second compound 0.0316 µM): > 10 µM; IC50 (second compound 0.1 µM): > 10 µM; IC50 (second compound 0.316 µM): > 10 µM; IC50 (second compound 1 µM): > 10 µM; IC50 (second compound 3.16 µM): > 10 µM; IC50 (second compound 10 µM): > 10 µM; viability, T/C (second compound 0.0316 µM, first compound 0.0316 µM): 105%; viability, T/C (second compound 0.0316 µM, first compound 0.1 µM): 90.7%; viability, T/C (second compound 0.0316 µM, first compound 0.316 µM): 99.5%; viability, T/C (second compound 0.0316 µM, first compound 1 µM): 97.8%; viability, T/C (second compound 0.0316 µM, first compound 3.16 µM): 104%; viability, T/C (second compound 0.0316 µM, first compound 10 µM): 96.4%; viability, T/C (second compound 0.1 µM, first compound 0.0316 µM): 95.4%; viability, T/C (second compound 0.1 µM, first compound 0.1 µM): 86.6%; viability, T/C (second compound 0.1 µM, first compound 0.316 µM): 99.1%; viability, T/C (second compound 0.1 µM, first compound 1 µM): 96.8%; viability, T/C (second compound 0.1 µM, first compound 3.16 µM): 108%; viability, T/C (second compound 0.1 µM, first compound 10 µM): 88.7%; viability, T/C (second compound 0.316 µM, first compound 0.0316 µM): 98.6%; viability, T/C (second compound 0.316 µM, first compound 0.1 µM): 95%; viability, T/C (second compound 0.316 µM, first compound 0.316 µM): 91.3%; viability, T/C (second compound 0.316 µM, first compound 1 µM): 105%; viability, T/C (second compound 0.316 µM, first compound 3.16 µM): 105%; viability, T/C (second compound 0.316 µM, first compound 10 µM): 88%; viability, T/C (second compound 1 µM, first compound 0.0316 µM): 94.8%; viability, T/C (second compound 1 µM, first compound 0.1 µM): 92.1%; viability, T/C (second compound 1 µM, first compound 0.316 µM): 95.3%; viability, T/C (second compound 1 µM, first compound 1 µM): 108%; viability, T/C (second compound 1 µM, first compound 3.16 µM): 103%; viability, T/C (second compound 1 µM, first compound 10 µM): 92.3%; viability, T/C (second compound 3.16 µM, first compound 0.0316 µM): 98.5%; viability, T/C (second compound 3.16 µM, first compound 0.1 µM): 94.7%; viability, T/C (second compound 3.16 µM, first compound 0.316 µM): 98.8%; viability, T/C (second compound 3.16 µM, first compound 1 µM): 99.4%; viability, T/C (second compound 3.16 µM, first compound 3.16 µM): 110%; viability, T/C (second compound 3.16 µM, first compound 10 µM): 88.7%; viability, T/C (second compound 10 µM, first compound 0.0316 µM): 95.4%; viability, T/C (second compound 10 µM, first compound 0.1 µM): 91.8%; viability, T/C (second compound 10 µM, first compound 0.316 µM): 96.1%; viability, T/C (second compound 10 µM, first compound 1 µM): 109%; viability, T/C (second compound 10 µM, first compound 3.16 µM): 107%; viability, T/C (second compound 10 µM, first compound 10 µM): 93.2%
